Experimental data: the supplement of paper PMC10883282

Experiments:
Test in all cases: standardised AUC of viability dose-response curve (72 h) (fraction (0-1)); higher = less growth inhibition (more resistant)
HT1080 = test system: HT1080
Method in brief: (§1)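 After 72 h with 2.5 µl of compound (compound-plate series 10 mM to 0.0002 mM), triplicate wells of sarcoma cell lines in 384-well plates were read with ATPLite, with viability scaled 1 (full) to 0 (none) and fitted with a four-parameter log-logistic model. The values give the standardised area under the dose-response curve in log-dose space from a modified drexplorer computeAUC. A value of 1 means no response and 0 means full response.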

G401 = test system: G401
Method in brief: as §1

VA-ES-BJ = test system: VA-ES-BJ
Method in brief: as §1

SW1353 = test system: SW1353
Method in brief: as §1

MES-SA = test system: MES-SA
Method in brief: as §1

A204 = test system: A204
Method in brief: as §1

SW982 = test system: SW982
Method in brief: as §1

SW684 = test system: SW684
Method in brief: as §1

SW872 = test system: SW872
Method in brief: as §1

KHOS-NP = test system: KHOS-NP
Method in brief: as §1

SYO-1 = test system: SYO-1
Method in brief: as §1

HS729 = test system: HS729
Method in brief: as §1

SK-LMS-1 = test system: SK-LMS-1
Method in brief: as §1

KHOS-240S = test system: KHOS-240S
Method in brief: as §1

RD-ES = test system: RD-ES
Method in brief: as §1

RD = test system: RD
Method in brief: as §1

SK-ES-1 = test system: SK-ES-1
Method in brief: as §1

| SMILES | standardised AUC (HT1080) | standardised AUC (G401) | standardised AUC (VA-ES-BJ) | standardised AUC (SW1353) | standardised AUC (MES-SA) | standardised AUC (A204) | standardised AUC (SW982) | standardised AUC (SW684) | standardised AUC (SW872) | standardised AUC (KHOS-NP) | standardised AUC (SYO-1) | standardised AUC (HS729) | standardised AUC (SK-LMS-1) | standardised AUC (KHOS-240S) | standardised AUC (RD-ES) | standardised AUC (RD) | standardised AUC (SK-ES-1) |
| --- | --- | --- | --- | --- | --- | --- | --- | --- | --- | --- | --- | --- | --- | --- | --- | --- | --- |
| CCCS(=O)(=O)N[C@H]1C[C@@H](N(C)c2ncnc3[nH]ccc23)C1 [ABROCITINIB] | 1 | 0.985 | 1 | 1 | 0.996 | 0.984 | 0.997 | 0.989 | 0.991 | 0.994 | 1 | 0.982 | 0.997 | 0.989 | 1 | 0.995 | 0.985 |
| COc1cc2c(Oc3ccc4[nH]c(C)cc4c3F)ccnc2cc1OCC1(N)CC1 [ANLOTINIB] | 0.965 | 0.872 | 0.941 | 0.909 | 0.876 | 0.708 | 0.904 | 0.944 | 0.936 | 0.93 | 0.736 | 0.909 | 0.868 | 0.883 | 0.914 | 0.903 | 0.851 |
| CCN(CCCOc1ccc2c(Nc3cc(CC(=O)Nc4cccc(F)c4)[nH]n3)ncnc2c1)CCOP(=O)(O)O [BARASERTIB] | 0.925 | 0.869 | 0.8 | 0.915 | 0.685 | 0.816 | 0.745 | 0.972 | 0.94 | 1 | 0.581 | 0.928 | 0.938 | 0.856 | 0.5 | 0.826 | 0.4 |
| COc1cc(Nc2c(C#N)cnc3cc(OCCCN4CCN(C)CC4)c(OC)cc23)c(Cl)cc1Cl [BOSUTINIB] | 0.917 | 0.932 | 0.85 | 0.895 | 0.861 | 0.93 | 0.795 | 0.883 | 0.848 | 0.87 | 0.909 | 0.906 | 0.932 | 0.851 | 0.856 | 0.895 | 0.78 |
| COc1cc2nccc(Oc3ccc(NC(=O)C4(C(=O)Nc5ccc(F)cc5)CC4)cc3)c2cc1OC [CABOZANTINIB] | 0.965 | 0.856 | 0.913 | 0.855 | 0.871 | 0.656 | 0.916 | 0.827 | 0.908 | 0.96 | 0.714 | 0.809 | 0.661 | 0.923 | 0.919 | 0.95 | 0.89 |
| Cc1cc(Nc2ncc(Cl)c(Nc3ccccc3S(=O)(=O)C(C)C)n2)c(OC(C)C)cc1C1CCNCC1 [CERITINIB] | 0.918 | 0.833 | 0.933 | 0.865 | 0.916 | 0.87 | 0.827 | 0.923 | 0.901 | 0.933 | 0.884 | 0.889 | 0.924 | 0.874 | 0.784 | 0.81 | 0.751 |
| C[C@@H](Oc1cc(-c2cnn(C3CCNCC3)c2)cnc1N)c1c(Cl)ccc(F)c1Cl [CRIZOTINIB] | 0.919 | 0.859 | 0.817 | 0.915 | 0.765 | 0.877 | 0.74 | 0.901 | 0.834 | 0.944 | 0.745 | 0.879 | 0.717 | 0.873 | 0.758 | 0.824 | 0.72 |
| COc1cc2ncnc(Nc3ccc(F)c(Cl)c3)c2cc1NC(=O)/C=C/CN1CCCCC1 [DACOMITINIB] | 0.916 | 0.89 | 0.893 | 0.804 | 0.858 | 0.842 | 0.814 | 0.888 | 0.87 | 0.939 | 0.856 | 0.907 | 0.91 | 0.896 | 0.879 | 0.869 | 0.824 |
| Cc1nc(Nc2ncc(C(=O)Nc3c(C)cccc3Cl)s2)cc(N2CCN(CCO)CC2)n1 [DASATINIB] | 0.941 | 0.86 | 0.651 | 0.712 | 0.949 | 0.612 | 0.607 | 0.767 | 0.716 | 0.725 | 0.736 | 0.774 | 0.78 | 0.617 | 0.949 | 0.658 | 0.907 |
| COc1cc(OC)cc(N(CCNC(C)C)c2ccc3ncc(-c4cnn(C)c4)nc3c2)c1 [ERDAFITINIB] | 0.964 | 0.604 | 0.912 | 0.868 | 0.796 | 0.555 | 0.816 | 0.924 | 0.856 | 0.971 | 0.581 | 0.685 | 0.91 | 0.773 | 0.891 | 0.924 | 0.818 |
| C#Cc1cccc(Nc2ncnc3cc(OCCOC)c(OCCOC)cc23)c1 [ERLOTINIB] | 0.992 | 0.982 | 0.955 | 0.926 | 0.941 | 0.943 | 0.927 | 0.992 | 0.946 | 0.994 | 0.978 | 0.956 | 0.968 | 0.994 | 0.983 | 0.984 | 0.893 |
| Cc1ccc(NC(=O)c2ccc(CN3CCN(C)CC3)cc2)cc1Nc1nccc(-c2cccnc2)n1 [IMATINIB] | 0.974 | 0.957 | 0.987 | 0.984 | 0.973 | 0.725 | 0.98 | 0.983 | 0.979 | 0.966 | 0.865 | 0.959 | 0.982 | 0.949 | 0.983 | 0.988 | 0.962 |
| N#CCC1(n2cc(-c3ncnc4[nH]ccc34)cn2)CN(C2CCN(C(=O)c3ccnc(C(F)(F)F)c3F)CC2)C1 [ITACITINIB] | 0.977 | 0.968 | 0.948 | 0.95 | 0.977 | 0.965 | 0.974 | 0.983 | 0.922 | 0.946 | 0.867 | 0.853 | 0.948 | 0.96 | 0.975 | 0.997 | 0.969 |
| N#Cc1ccnc(N2C(=O)CC[C@H]2C(=O)N(c2cncc(F)c2)[C@H](C(=O)NC2CC(F)(F)C2)c2ccccc2Cl)c1 [IVOSIDENIB] | 1 | 0.981 | 0.987 | 0.993 | 0.999 | 0.972 | 0.974 | 0.993 | 1 | 0.993 | 0.985 | 0.986 | 0.977 | 0.988 | 0.988 | 0.992 | 0.997 |
| COc1cc2nccc(Oc3ccc(NC(=O)NC4CC4)c(Cl)c3)c2cc1C(N)=O [LENVATINIB] | 0.995 | 0.845 | 1 | 0.914 | 0.911 | 0.587 | 0.966 | 0.992 | 0.978 | 1 | 0.701 | 0.866 | 0.984 | 0.888 | 0.937 | 0.999 | 0.898 |
| C[C@H]1Oc2cc(cnc2N)-c2c(nn(C)c2C#N)CN(C)C(=O)c2ccc(F)cc21 [LORLATINIB] | 0.977 | 0.96 | 0.941 | 0.928 | 0.951 | 0.959 | 0.887 | 0.983 | 0.861 | 0.957 | 0.895 | 0.871 | 0.952 | 0.953 | 0.932 | 0.926 | 0.963 |
| Cc1c(F)cc(C(=O)NC2CC2)cc1-c1ccc(C(=O)NCC(C)(C)C)cn1 [LOSMAPIMOD] | 0.999 | 0.941 | 0.941 | 0.993 | 0.944 | 0.977 | 0.991 | 0.995 | 0.992 | 0.999 | 0.933 | 0.87 | 0.973 | 0.944 | 0.95 | 0.981 | 0.929 |
| CO[C@@H]1[C@H](N(C)C(=O)c2ccccc2)C[C@H]2O[C@]1(C)n1c3ccccc3c3c4c(c5c6ccccc6n2c5c31)C(=O)NC4 [MIDOSTAURIN] | 0.8 | 0.778 | 0.785 | 0.733 | 0.731 | 0.715 | 0.709 | 0.835 | 0.757 | 0.812 | 0.642 | 0.796 | 0.773 | 0.709 | 0.764 | 0.81 | 0.689 |
| Cc1ccc(C(=O)OCc2ccc([C@@H](CN)C(=O)Nc3ccc4cnccc4c3)cc2)c(C)c1 [NETARSUDIL] | 0.952 | 0.949 | 0.985 | 0.855 | 0.857 | 0.85 | 0.91 | 0.926 | 0.893 | 0.951 | 0.884 | 0.966 | 0.886 | 0.828 | 0.914 | 0.923 | 0.921 |
| Cc1cn(-c2cc(NC(=O)c3ccc(C)c(Nc4nccc(-c5cccnc5)n4)c3)cc(C(F)(F)F)c2)cn1 [NILOTINIB] | 0.972 | 0.954 | 0.981 | 0.996 | 0.957 | 0.799 | 0.976 | 1 | 0.971 | 0.989 | 0.843 | 0.917 | 1 | 0.947 | 0.949 | 0.926 | 0.909 |
| NC(=O)c1cccc2cn(-c3ccc([C@@H]4CCCNC4)cc3)nc12 [NIRAPARIB] | 0.999 | 0.971 | 0.966 | 0.966 | 0.961 | 0.949 | 0.94 | 0.989 | 1 | 1 | 0.842 | 0.977 | 0.979 | 0.983 | 0.874 | 0.956 | 0.8 |
| C=CC(=O)Nc1cc(Nc2nccc(-c3cn(C)c4ccccc34)n2)c(OC)cc1N(C)CCN(C)C [OSIMERTINIB] | 0.938 | 0.904 | 0.916 | 0.919 | 0.893 | 0.873 | 0.907 | 0.939 | 0.918 | 0.974 | 0.798 | 0.874 | 0.925 | 0.923 | 0.89 | 0.921 | 0.847 |
| C1=N/C2=N/c3ccc(OCCN4CCCC4)c(c3)COC/C=C/COCc3cccc(c3)C(=C1)N2 [PACRITINIB] | 0.853 | 0.793 | 0.753 | 0.836 | 0.787 | 0.736 | 0.733 | 0.758 | 0.786 | 0.898 | 0.747 | 0.855 | 0.897 | 0.811 | 0.792 | 0.781 | 0.714 |
| NC(=O)c1cnc2[nH]ccc2c1N[C@@H]1[C@@H]2CC3C[C@H]1C[C@@](O)(C3)C2 [PEFICITINIB] | 1 | 1 | 0.995 | 1 | 0.949 | 0.912 | 0.929 | 0.988 | 0.977 | 0.982 | 0.888 | 0.988 | 0.985 | 0.955 | 0.983 | 1 | 0.938 |
| CCCCCCCCCCCCCCCCCCOP(=O)([O-])OC1CC[N+](C)(C)CC1 [PERIFOSINE] | 0.966 | 0.994 | 0.968 | 0.962 | 0.954 | 0.982 | 0.99 | 0.999 | 0.915 | 0.966 | 0.946 | 0.924 | 0.941 | 0.983 | 0.994 | 0.996 | 0.952 |
